Source: ChEMBL document CHEMBL1201862, “PubChem BioAssay data set” (2004)
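96-well plates; 48 h exposure; 5 concentrations. Endpoints by linear interpolation between flanking doses. Not reached: highest tested concentration assigned. GI50 is the concentration that inhibits growth by half.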 Activity calls are given as the source filed them. Rule as the data show it: active = GI50 up to about 1.1 µM and inactive = higher.

Columns and labels:
Test in all cases: growth of human tumour cells (NCI), 48 h
[1] = system: IGROV-1
[2] = system: A549
[3] = system: NCI-H460
[4] = system: NCI-H23
[5] = system: HT-29
[6] = system: EKVX
[7] = system: SNB-19
[8] = system: SK-MEL-28
[9] = system: HOP-62
[10] = system: SR
[11] = system: M14
[12] = system: UACC-257
[13] = system: KM12
[14] = system: HOP-92
[15] = system: ACHN
[16] = system: KM-20L2
[17] = system: MOLT-4
[18] = system: UO-31
[19] = system: NCI-H522
[20] = system: DMS-114
[21] = system: U-251
[22] = system: TK-10
[23] = system: CCRF-CEM
[24] = system: M19-MEL
[25] = system: SK-OV-3
[26] = system: UACC-62
[27] = system: HCT-116
[28] = system: SF-295
[29] = system: RXF 393
[30] = system: A498
[31] = system: SNB-78
[32] = system: OVCAR-5
[33] = system: OVCAR-8
[34] = system: HL-60
[35] = system: DMS-273
[36] = system: PC-3
[37] = system: LOX IMVI
[38] = system: MCF7
[39] = system: SF-539
[40] = system: COLO 205
[41] = system: Hs-578T
[42] = system: SK-MEL-5
[43] = system: Malme-3M
[44] = system: OVCAR-3
[45] = system: SK-MEL-2
[46] = system: OVCAR-4
[47] = system: BT-549
[48] = system: T47D
[49] = system: CAKI-1
[50] = system: NCI-H226
[51] = system: SW-620
[52] = system: 786-0
[53] = system: MDA-MB-435
[54] = system: MDA-N
[55] = system: HCC 2998
[56] = system: RPMI-8226
[57] = system: MDA-MB-231
[58] = system: SF-268
[59] = system: DU-145
[60] = system: HCT-15
[61] = system: SNB-75
[62] = system: SN12C
[63] = system: NCI/ADR-RES
[64] = system: K562

Measured: GI50

C=C(C)C1CC=C(C)[C@](O)(C2(O)C[C@H](C(=C)C)CC=C2C)C1 (stereo partly drawn)
inactive: [1] > 100 µM | [2] > 100 µM | [3] > 100 µM | [4] > 100 µM | [5] > 100 µM | [6] > 100 µM | [7] > 100 µM | [8] > 100 µM | [9] > 100 µM | [10] > 100 µM | [11] > 100 µM | [12] > 100 µM | [13] > 100 µM | [14] > 100 µM | [15] > 100 µM | [16] > 100 µM | [17] > 100 µM | [18] > 100 µM | [19] > 100 µM | [20] > 100 µM | [21] > 100 µM | [22] > 100 µM | [23] > 100 µM | [24] > 100 µM | [25] > 100 µM | [26] > 100 µM | [27] > 100 µM | [28] > 100 µM | [29] > 100 µM | [30] > 100 µM | [31] > 100 µM | [32] > 100 µM | [33] > 100 µM | [34] > 100 µM | [35] > 100 µM

O=C(O)c1c(CC(Cc2ccccc2)C(=O)O)ccc2c1CCC2 (stereo not drawn)
> 100 µM: [60]
inactive: [36] > 100 µM | [37] > 100 µM | [1] > 100 µM | [2] > 100 µM | [3] > 100 µM | [4] > 100 µM | [38] > 100 µM | [5] > 100 µM | [6] > 100 µM | [39] > 100 µM | [40] > 100 µM | [41] > 100 µM | [7] > 100 µM | [8] > 100 µM | [42] > 100 µM | [9] > 100 µM | [43] > 100 µM | [10] > 100 µM | [44] > 100 µM | [11] > 10 µM | [12] > 100 µM | [45] > 100 µM | [13] > 100 µM | [14] > 100 µM | [46] > 100 µM | [15] > 100 µM | [17] > 100 µM | [47] > 100 µM | [18] > 100 µM | [19] > 100 µM | [21] > 100 µM | [22] > 100 µM | [48] 66.5 µM | [49] > 100 µM | [50] > 100 µM | [23] > 100 µM | [51] > 100 µM | [52] > 100 µM | [53] > 100 µM | [25] > 100 µM | [26] 4.11 µM | [54] > 100 µM | [55] > 100 µM | [27] > 100 µM | [28] > 100 µM | [29] > 100 µM | [30] > 100 µM | [56] > 100 µM | [57] > 100 µM | [58] > 100 µM | [32] > 100 µM | [33] > 100 µM | [59] > 100 µM | [61] > 100 µM | [34] > 100 µM | [62] > 100 µM | [63] > 100 µM | [64] > 100 µM

O=[N+]([O-])c1cc(CCl)ccc1CCl
inactive: [36] 1.64 µM | [37] 1.85 µM | [1] 1.56 µM | [2] 5.79 µM | [3] 3.44 µM | [4] 2.16 µM | [38] 1.63 µM | [5] 1.71 µM | [6] 1.82 µM | [39] 2.56 µM | [40] 1.71 µM | [41] 2.72 µM | [7] 1.89 µM | [8] 2.06 µM | [42] 2.67 µM | [9] 1.54 µM | [43] 1.74 µM | [44] 1.87 µM | [11] 1.74 µM | [12] 3.07 µM | [45] 2.72 µM | [13] 1.66 µM | [14] 1.76 µM | [46] 1.76 µM | [15] 1.72 µM | [17] 2.1 µM | [47] 3.07 µM | [18] 1.66 µM | [19] 1.73 µM | [21] 1.75 µM | [22] 2.96 µM | [49] 1.35 µM | [50] 3.78 µM | [51] 2.17 µM | [52] 1.67 µM | [53] 2.12 µM | [25] 13.3 µM | [26] 4.41 µM | [54] 1.87 µM | [55] 2.48 µM | [27] 1.69 µM | [28] 6.82 µM | [30] 6.59 µM | [56] 1.48 µM | [57] 2.33 µM | [58] 1.99 µM | [32] 2.62 µM | [33] 2.4 µM | [59] 1.63 µM | [61] 2.13 µM | [34] 2.11 µM | [62] 1.53 µM | [63] 2.7 µM | [64] 2.24 µM
active: [10] 0.893 µM | [48] 0.676 µM | [23] 0.504 µM | [29] 0.585 µM
1.84 µM: [60]
